Publication PMC8880564, “Design, Synthesis, and Biological Evaluation of a Novel VEGFR-2 Inhibitor Based on a 1,2,5-Oxadiazole-2-Oxide Scaffold with MAPK Signaling Pathway Inhibition” (Pharmaceuticals, 2022)

Experiments:
Assay in all cases: NCI-60 one-dose SRB screening
Format in all cases: cell-based
786-0 = settings: Homo sapiens, 786-0, Renal Cancer, 10 µM one dose, 48 h, read-out: growth percentage
Experimental: (§1) The structures of the synthesized compounds 6a–h, 12a–c, 11, 13a–c, and 14a–c were submitted to the National Cancer Institute’s Developmental Therapeutics Program (NCI-DTP), and all of them were selected for preliminary in vitro anticancer activity screening against NCI-59 human cancer cell lines at a concentration of 10 µM, using the sulforhodamine B (SRB) assay to determine the growth percentage and cell viability.
(§2) The in vitro NCI-60 cell line screening assay was conducted at the National Cancer Institute (NCI), Bethesda, USA against 59 cancer cell lines representing 9 types of cancers, as reported earlier. Briefly, the human cancer cell lines were grown in RPMI 1640 medium containing 5% fetal bovine serum and 2 mM L-glutamine and inoculated into 96-well microtiter plates in 100 μL (5000 to 40,000 cells/well). Then, the plates were incubated at 37 °C, 5% CO2, 95% air, and 100% relative humidity for 24 h. After that, two plates of each cell line were fixed in situ with TCA, to represent cell population at time zero (Tz). The tested compounds were dissolved in DMSO at 400-fold and added so that the final concentration became 10 μM. The plates were then incubated for an additional 48 h followed by the addition of cold TCA to terminate the assay in case of adherent cells. Then, the cells were fixed in situ by cold 50% (w/v) TCA (50 μL; final concentration, 10% TCA) and incubated for 1 h at 4 °C. After discarding the supernatant, the plates were washed 5 times with tap water and air dried. Sulforhodamine B (SRB) solution (100 μL) at 0.4% (w/v) in 1% HOAc was added to each well, and plates were incubated for 10 min. at rt. Then, washing with 1% acetic acid was conducted 5 times to remove the unbound dye followed by air drying. After that, 10 mM trizma base was added to solubilize the bound stain, and the absorbance was read on an automated plate reader at a wavelength of 515 nm. On the other hand, the methodology for suspension cells was the same except that 50 μL of 80% TCA (final concentration, 16% TCA) was gently added to terminate the assay by fixing settled cells at the bottom of the wells. Percentage growth inhibition (GI%) was calculated as follows:
(§3) Growth percentage=Ti (test growth in the presence of compound at 10 µM )−Tz (time zero)/C (control growth)−Tz (time zero)×100 for Ti ≥ Tz;
(§4) Growth percentage=Ti (test growth in the presence of compound at 10 µM )−Tz (time zero)/Tz (time zero)×100 for Ti < Tz.
(§5) where values of 100, 40, 0, −40, and −100 mean no GI, 60% GI, no net G, 40% lethality, and all cells are dead, respectively.

A549/ATCC = settings: Homo sapiens, Non-Small Cell Lung Cancer, 10 µM one dose, 48 h, read-out: growth percentage
Experimental: as §1, §2, §3, §4, §5

HL-60(TB) = settings: Homo sapiens, Leukemia, 10 µM one dose, 48 h, read-out: growth percentage
Experimental: as §1, §2, §3, §4, §5

IGROV1 = settings: Homo sapiens, IGROV-1, IGROV1, Ovarian Cancer, 10 µM one dose, 48 h, read-out: growth percentage
Experimental: as §1, §2, §3, §4, §5

K-562 = settings: Homo sapiens, K562, K-562, Leukemia, 10 µM one dose, 48 h, read-out: growth percentage
Experimental: as §1, §2, §3, §4, §5

M14 = settings: Homo sapiens, M14, Melanoma, 10 µM one dose, 48 h, read-out: growth percentage
Experimental: as §1, §2, §3, §4, §5

MCF7 = settings: Homo sapiens, MCF7, Breast Cancer, 10 µM one dose, 48 h, read-out: growth percentage
Experimental: as §1, §2, §3, §4, §5

MDA-MB-231/ATCC = settings: Homo sapiens, Breast Cancer, 10 µM one dose, 48 h, read-out: growth percentage
Experimental: as §1, §2, §3, §4, §5

MDA-MB-435 = settings: Homo sapiens, MDA-MB-435, Melanoma, 10 µM one dose, 48 h, read-out: growth percentage
Experimental: as §1, §2, §3, §4, §5

NCI-H226 = settings: Homo sapiens, NCI-H226, Non-Small Cell Lung Cancer, 10 µM one dose, 48 h, read-out: growth percentage
Experimental: as §1, §2, §3, §4, §5

NCI-H23 = settings: Homo sapiens, NCI-H23, Non-Small Cell Lung Cancer, 10 µM one dose, 48 h, read-out: growth percentage
Experimental: as §1, §2, §3, §4, §5

NCI-H460 = settings: Homo sapiens, NCI-H460, Non-Small Cell Lung Cancer, 10 µM one dose, 48 h, read-out: growth percentage
Experimental: as §1, §2, §3, §4, §5

NCI-H522 = settings: Homo sapiens, NCI-H522, Non-Small Cell Lung Cancer, 10 µM one dose, 48 h, read-out: growth percentage
Experimental: as §1, §2, §3, §4, §5

PC-3 = settings: Homo sapiens, PC-3, Prostate Cancer, 10 µM one dose, 48 h, read-out: growth percentage
Experimental: as §1, §2, §3, §4, §5

RPMI-8226 = settings: Homo sapiens, RPMI-8226, Leukemia, 10 µM one dose, 48 h, read-out: growth percentage
Experimental: as §1, §2, §3, §4, §5

RXF 393 = settings: Homo sapiens, RXF 393, Renal Cancer, 10 µM one dose, 48 h, read-out: growth percentage
Experimental: as §1, §2, §3, §4, §5

SF-268 = settings: Homo sapiens, SF-268, CNS Cancer, 10 µM one dose, 48 h, read-out: growth percentage
Experimental: as §1, §2, §3, §4, §5

SF-539 = settings: Homo sapiens, SF-539, CNS Cancer, 10 µM one dose, 48 h, read-out: growth percentage
Experimental: as §1, §2, §3, §4, §5

SK-MEL-28 = settings: Homo sapiens, SK-MEL-28, Melanoma, 10 µM one dose, 48 h, read-out: growth percentage
Experimental: as §1, §2, §3, §4, §5

SK-OV-3 = settings: Homo sapiens, SK-OV-3, Ovarian Cancer, 10 µM one dose, 48 h, read-out: growth percentage
Experimental: as §1, §2, §3, §4, §5

SN12C = settings: Homo sapiens, Renal Cancer, 10 µM one dose, 48 h, read-out: growth percentage
Experimental: as §1, §2, §3, §4, §5

Compound | activity at 10 µM (786-0) [%] | activity at 10 µM (A549/ATCC) [%] | activity at 10 µM (HL-60(TB)) [%] | activity at 10 µM (IGROV1) [%] | activity at 10 µM (K-562) [%] | activity at 10 µM (M14) [%] | activity at 10 µM (MCF7) [%] | activity at 10 µM (MDA-MB-231/ATCC) [%] | activity at 10 µM (MDA-MB-435) [%] | activity at 10 µM (NCI-H226) [%] | activity at 10 µM (NCI-H23) [%] | activity at 10 µM (NCI-H460) [%] | activity at 10 µM (NCI-H522) [%] | activity at 10 µM (PC-3) [%] | activity at 10 µM (RPMI-8226) [%] | activity at 10 µM (RXF 393) [%] | activity at 10 µM (SF-268) [%] | activity at 10 µM (SF-539) [%] | activity at 10 µM (SK-MEL-28) [%] | activity at 10 µM (SK-OV-3) [%] | other results
O=c1[nH]c(CCl)nc2c1cnn2-c1ccccc1 [13a] | 122 | 98.5 | 109 | 96.2 | 87.5 | 110 | 79.5 | 101 | 95.7 | 110 | 101 | 101 | 103 | 105 | 82.5 | 94.1 | 99.9 | 97.1 | -89.8 | 106 | activity at 10 µM (SN12C): 99.8%
O=c1[nH]c(CNc2ccc(NCc3c(-c4ccccc4)no[n+]3[O-])cc2)nc2c1cnn2-c1ccccc1 [14a, 3-(((4-(((4-oxo-1-phenyl-4,5-dihydro-1H-pyrazolo[3,4-d]pyrimidin-6-yl)methyl)amino)phenyl)amino)methyl)-4-phenyl-1,2,5-oxadiazole 2-oxide] | 102 | 63.8 | 63.1 | 52.5 | 49.8 | 80 | 50 | 72.5 | 70.7 | 77.2 | 63.4 | 64.2 | 60.8 | 63.3 | 61.9 | 98.4 | 73.5 | 92.6 | 77.2 | 60.6 | activity at 10 µM (SN12C): 79%
Cc1nn(-c2ccccc2)c2nc(CNc3ccc(NCc4c(-c5ccccc5)no[n+]4[O-])cc3)[nH]c(=O)c12 [14b, 3-(((4-(((3-methyl-4-oxo-1-phenyl-4,5-dihydro-1H-pyrazolo[3,4-d]pyrimidin-6-yl)methyl)amino)phenyl)amino)methyl)-4-phenyl-1,2,5-oxadiazole 2-oxide] | 125 | 74.3 | 93.7 | 64.4 | 75.8 | 106 | 77 | 82.7 | 91.6 | 101 | 86.6 | 90 | 80.9 | 77.7 | 79 | 108 | 84.9 | 99.4 | 99.2 | 85.4 | activity at 10 µM (SN12C): 89.4%
Cc1nn(-c2ccc(Br)cc2)c2nc(CNc3ccc(NCc4c(-c5ccccc5)no[n+]4[O-])cc3)[nH]c(=O)c12 [14c, 3-(((4-(((1-(4-bromophenyl)-3-methyl-4-oxo-4,5-dihydro-1H-pyrazolo[3,4-d]pyrimidin-6-yl)methyl)amino)phenyl)amino)methyl)-4-phenyl-1,2,5-oxadiazole 2-oxide] | 119 | 97.4 | 103 | 85.6 | 111 | 107 | 88.1 | 96.5 | 101 | 109 | 103 | 107 | 90.8 | 96.6 | 112 | 117 | 95.2 | 102 | 103 | 107 | activity at 10 µM (SN12C): 98.8%
Nc1ccc(NCc2c(-c3ccccc3)no[n+]2[O-])cc1 [compound 11, 3-(((4-aminophenyl)amino)methyl)-4-phenyl-1,2,5-oxadiazole 2-oxide] | 140 | 95.1 | 95.5 | 88.7 | 99.1 | 102 | 85.5 | 104 | 90.2 | 114 | 105 | 101 | 93.5 | 95.1 | 97.5 | 134 | 101 | 104 | 101 | 105 | activity at 10 µM (SN12C): 109%
